We go through 1 molecule from patent US20170001988A1, “PIPERIDINE AND PIPERAZINE DERIVATIVES AND THEIR USE IN TREATING VIRAL INFECTIONS AND CANCER” (THE UNITED STATES OF AMERICA, AS REPRESENTED BY THE …, priority 2013, published 2017).

Test [1] deals with HCVcc, genotype 2a, JFH-1 strain. The test is described as follows: HCVcc assay, extracellular and intracellular viral RNA by quantitative real-time PCR. It is filed as cell-based, HCV. The following applies: at the highest concentration. The protocol: Huh 7.5.1 cells were seeded in 12-well plates (10^5 cells/well) and cultured overnight. HCVcc was used to infect the cells with the treatment of compounds at 10 μM. Virus-containing medium was removed after 4 h incubation and compound treatment was added back followed by incubation for additional 48 h. Intracellular and extracellular viral RNA levels were evaluated by quantitative real-time PCR. The results are illustrated in FIG. 1 and are the means of three replicates ±SEM. […] Cyclosporin A at 10 μM was used as positive control.
Cell Culture-derived HCV (HCVcc, genotype 2a, JFH-1 strain) system provides direct evidence of anti-HCV activity of the compounds.
(§1) Cell Culture-derived HCV (HCVcc, genotype 2a, JFH-1 strain) system provides direct evidence of anti-HCV activity of the compounds. Determination of both extracellular and intracellular HCV levels can help evaluate whether the compounds interfere early-stage or late-stage infection. […] Cyclosporin A was tested in parallel to serve as control compound targeting early-stage HCV infection. […] At the highest concentration, cyclosporin A caused approximately 4-log fold reduction in intracellular RNA copies, while the extracellular level reduced less than […]. On the contrary, NCGC00345021 led to only about 1-log fold decrease in intracellular RNA copies when causing 3-log fold reduction in extracellular RNA level. Clearly, when the concentration increased, NCGC00345021 led to a more dramatic reduction in extracellular RNA copies.
Background: Quantitative PCR measures a nucleic acid by following its amplification.

Test [2] has the same test system. The experiment in a line: TCID50 determination: re-infection of naive Huh 7.5.1 cells with medium from the HCVcc assay. To be noted: medium with extracellular virus used to re-infect naive Huh 7.5.1 cells. It is filed as cell-based, HCV. The protocol:
FIG. 4B illustrates the TCID50 of naïve Huh 7.5.1 cells that were infected using medium collected in the HCVcc assay run using 0.32, 1.0, and 3.2 μM concentrations of NCGC00345021 and 0.032, 0.10 and 0.32 μM concentrations of Cyclosporin A.
as §1

The subject of the next test is HCVsc, genotype 2a. It counts as cell-based, HCV.
The next test concerns HCV replicon GT 2a. It is filed as cell-based.
Another test relates to GT 2a replicon RNA. The experiment in a line: Transient replicon assay, GT 2a. It counts as cell-based, HCV.
The next test deals with HCVpp GT 1a. It counts as cell-based, HCV.
Another test relates to VSVpp. It is filed as cell-based.
A further test concerns HCV-Luc. The experiment in a line: HCV-Luc infection assay. To be noted: Hepatitis C virus; at 10 nM. It counts as cell-based.
The test system of the next test is Dengue RVP. The experiment in a line: Dengue Reporter Virus Particles (RVPs) reproducibility assay. To be noted: increasing concentrations; Huh 7.5.1 cells; luciferase 48 h.

SMILES strings stand for the structures. Bounds are passed on as bounds.

Procedure for Dengue RVP: Huh 7.5.1 cells seeded in 96-well plates (10^4 cells/well) were cultured overnight. […] The results are means of three replicates ±SEM.

As a reminder, the inhibition is the relative decrease from the control value, in per cent. As for `COc1ccc(CN2CCC(N(CCc3ccccc3)Cc3ccccc3)CC2)c(OC)c1` [NCGC00345021, N-Benzyl-1-(2,4-dimethoxybenzyl)-N-phenethylpiperidin-4-amine], in [1], the “reduction in extracellular RNA level” value was determined as 3 log fold and the “reduction in intracellular RNA copies” value is “about 1 log fold”. The TCID50 values result in test [2] is on record as “dose-dependent reduction”. Besides, the “inhibitory activity in the HCVsc infection level” value with HCVsc, genotype 2a (10 μM, Huh 7.5.1 cells, luciferase 48 h) is “no significant inhibitory activities”. The “% RLU at 10 μM, HCVsc” value in the test on HCVsc, genotype 2a (mean of five replicates ±SEM) stood at 104 ± 9.95 % RLU. Also, in the test with HCV replicon GT 2a (10 μM, luciferase 48 h), the “inhibitory effect in replicon GT 2a cell line” value is recorded as “did not show any inhibitory effect”. In the test on HCV replicon GT 2a (mean of five replicates ±SEM), the “% RLU at 10 μM, HCV subgenomic replicon GT 2a cell line” value is recorded as 54.4 ± 2.96 % RLU. The “inhibition of viral replication, transient GT 2a replicon” value with GT 2a replicon RNA (10 μM, Huh 7.5.1 cells) was “modest inhibition”. In addition, the “% RLU at 10 μM, HCV subgenomic replicon Transient GT 2a” value in the test on GT 2a replicon RNA (mean of five replicates ±SEM) was 139 ± 16.4 % RLU. In addition, the “inhibitory activity in HCVpp GT 1a” value in the test with HCVpp GT 1a (10 μM, Huh 7.5.1 cells) was “low inhibitory activity”. The “% RLU at 10 μM, HCVpp GT 1a” value in the test with HCVpp GT 1a (mean of five replicates ±SEM) amounted to 66.3 ± 9.49 % RLU. Further, the “% RLU at 10 μM, VSVpp” value in the test with VSVpp was 103 ± 6.73 % RLU. Besides, the “inhibition on VSVpp” value in the test with VSVpp (10 μM) is “no inhibition”. In the test with HCV-Luc, the inhibition at 0.01 µM was above 90%. Further, in the test with Dengue RVP, the “Dengue RVP reproducibility” value was “dose-dependent inhibition”.
